Test system: A549 (Human lung cancer cell line)
Assay: Effect of combination of sulfonamide compound and other antitumor agent (CellTiter-Glo, combination index): A549
[1] = Example Compound 14 4420 nM + Etoposide 3790 nM
[2] = Example Compound 209A 952 nM + Etoposide 3790 nM
[3] = Example Compound 235A 1170 nM + Etoposide 3790 nM
[4] = Example Compound 14 4420 nM + Lapatinib 6000 nM
[5] = Example Compound 209A 952 nM + Lapatinib 6000 nM
[6] = Example Compound 235A 1170 nM + Lapatinib 6010 nM
[7] = Example Compound 14 1970 nM + Trifluridine 288 nM
[8] = Example Compound 14 2950 nM + Trifluridine 431 nM
[9] = Example Compound 209A 635 nM + Trifluridine 431 nM
[10] = Example Compound 235A 780 nM + Trifluridine 431 nM
[11] = Example Compound 14 4420 nM + Talazoparib 7990 nM
[12] = Example Compound 209A 952 nM + Talazoparib 8000 nM
[13] = Example Compound 235A 1170 nM + Talazoparib 8000 nM
[14] = Example Compound 14 4420 nM + Luminespib 13.5 nM
[15] = Example Compound 209A 952 nM + Luminespib 13.5 nM
[16] = Example Compound 235A 1750 nM + Luminespib 8.13 nM
[17] = Example Compound 14 4420 nM + Olaparib 14800 nM
[18] = Example Compound 209A 952 nM + Olaparib 14800 nM
[19] = Example Compound 235A 1170 nM + Olaparib 14800 nM
[20] = Example Compound 14 4420 nM + Cabozantinib 6000 nM
[21] = Example Compound 209A 952 nM + Cabozantinib 6000 nM
[22] = Example Compound 235A 1170 nM + Cabozantinib 6010 nM
[23] = Example Compound 14 4420 nM + 5-Fluorouracil 2700 nM
[24] = Example Compound 209A 952 nM + 5-Fluorouracil 4310 nM
[25] = Example Compound 235A 1170 nM + 5-Fluorouracil 4310 nM

Protocol: Each cell line was seeded at 90 L/well to a 96-well culture plate (Thermo Fisher Scientific, Inc.) according to the above tables. The cell-seeded plate was cultured in an incubator set to 37° C. and 500 CO2. On the day following seeding, varying concentrations of the sulfonamide compound and the other antitumor agent were added in combination to the cells. […] The serial dilutions of each compound, or DW was added at 5μL/well to the plate such that each compound and DW, or the sulfonamide compound and the other antitumor agent were combined. […] The plate after the addition was cultured at 37° C. for 3 days under 5% CO2 conditions.
Three days later, CellTiter-Glo(R) 2.0 Reagent (Promega Corporation) was added at 100 μL/well, and the amount of luminescence was measured using a plate reader EnSpire(R) Multimode Plate Reader (PerkinElmer Co., Ltd.).
An average value from 3 wells was calculated as to each drug condition from the obtained data, and cell survival rate normalized against control wells supplemented with the vehicle (DW) was calculated. A Fa (fractional inhibition) value was calculated by subtracting the cell survival rate from 1.

SMILES: COc1cc([C@@H]2c3cc4c(cc3[C@@H](O[C@@H]3O[C@@H]5CO[C@@H](C)O[C@H]5[C@H](O)[C@H]3O)[C@H]3COC(=O)[C@H]23)OCO4)cc(OC)c1O [Etoposide, etoposide]
- CI value [1]: 0.707
- Fa value [1]: 0.7245
- CI value [2]: 0.635
- Fa value [2]: 0.7460
- CI value [3]: 0.763
- Fa value [3]: 0.6978

SMILES: CS(=O)(=O)CCNCc1ccc(-c2ccc3ncnc(Nc4ccc(OCc5cccc(F)c5)c(Cl)c4)c3c2)o1 [Lapatinib, lapatinib]
- CI value [4]: 0.512
- Fa value [4]: 0.8641
- CI value [5]: 0.443
- Fa value [5]: 0.8816
- CI value [6]: 0.417
- Fa value [6]: 0.8726

SMILES: O=c1[nH]c(=O)n([C@H]2C[C@H](O)[C@@H](CO)O2)cc1C(F)(F)F [Trifluridine, trifluridine]
- CI value [7]: 0.892
- Fa value [7]: 0.4363
- CI value [8]: 0.844
- Fa value [8]: 0.6485
- CI value (Example Compound 14 4420 nM + Trifluridine 645 nM): 0.678
- CI value (Example Compound 14 6640 nM + Trifluridine 969 nM): 0.791
- CI value [9]: 0.897
- Fa value [9]: 0.5907
- CI value (Example Compound 209A 952 nM + Trifluridine 646 nM): 0.733
- CI value (Example Compound 209A 1430 nM + Trifluridine 970 nM): 0.775
- CI value [10]: 0.869
- Fa value [10]: 0.5850
- CI value (Example Compound 235A 1170 nM + Trifluridine 646 nM): 0.680
- CI value (Example Compound 235A 1750 nM + Trifluridine 967 nM): 0.739

SMILES: Cn1ncnc1[C@H]1c2n[nH]c(=O)c3cc(F)cc(c23)N[C@@H]1c1ccc(F)cc1 [Talazoparib, talazoparib]
- CI value [11]: 0.540
- Fa value [11]: 0.7406
- CI value [12]: 0.422
- Fa value [12]: 0.7998
- CI value [13]: 0.585
- Fa value [13]: 0.6990

SMILES: CCNC(=O)c1noc(-c2cc(C(C)C)c(O)cc2O)c1-c1ccc(CN2CCOCC2)cc1 [Luminespib, luminespib]
- CI value [14]: 0.786
- Fa value [14]: 0.8373
- CI value [15]: 0.832
- Fa value [15]: 0.8172
- CI value [16]: 0.819
- Fa value [16]: 0.8795

SMILES: O=C(c1cc(Cc2n[nH]c(=O)c3ccccc23)ccc1F)N1CCN(C(=O)C2CC2)CC1 [Olaparib, olaparib]
- CI value [17]: 0.668
- Fa value [17]: 0.7031
- CI value [18]: 0.478
- Fa value [18]: 0.7947
- CI value [19]: 0.683
- Fa value [19]: 0.6832

SMILES: COc1cc2nccc(Oc3ccc(NC(=O)C4(C(=O)Nc5ccc(F)cc5)CC4)cc3)c2cc1OC [Cabozantinib, cabozantinib]
- CI value [20]: 0.868
- Fa value [20]: 0.7829
- CI value [21]: 0.486
- Fa value [21]: 0.8982
- CI value [22]: 0.871
- Fa value [22]: 0.7659

SMILES: O=c1[nH]cc(F)c(=O)[nH]1 [5-Fluorouracil, 5-fluorouracil]
- CI value [23]: 0.880
- Fa value [23]: 0.6619
- CI value [24]: 0.853
- Fa value [24]: 0.7187
- CI value [25]: 0.880
- Fa value [25]: 0.6738

— patent US20200405697A1, “Antitumor Agent” (Taiho Pharmaceutical Co., Ltd, priority 2017, published 2020)
